From patent publication US20240327359A1, “3-ISOXAZOLIDINONE COMPOUND, PREPARATION METHOD, HERBICIDAL COMPOSITION AND APPLICATION THEREOF” (QINGDAO KINGAGROOT CHEMICAL COMPOUND CO., LTD., priority 2021, published 2024)

Experiments:
Format in all cases: in vivo
[1] = test system: Alopecurus japonicus; assay: Weeding effect in post-emergence stage; conditions: 720 g a.i./ha, 3 weeks after application
From the text: (§1) The activity level criteria for plant damage (i.e., growth control rate) are as follows:
(§2) The above growth control rates are fresh weight control rates.
(§3) Monocotyledonous and dicotyledonous weed seeds (Descurainia sophia, Capsella bursa-pastoris, Abutilon theophrasti, Galium aparine, Stellaria media, Lithospermum arvense, Rorippa indica, Alopecurus aequalis, Alopecurus japonicus, Eleusine indica, Beckmannia syzigachne, Sclerochloa dura, Phleum paniculatum, Veronica didyma, Bromus japonicus, Aegilops tauschii, Phalaris arundinacea, Amaranthus retroflexus, Chenopodiaceae, Commelina communis, Sonchus arvensis, Convolvulus arvensis, Cirsium setosum, Solanumnigrum, Acalypha australis, Digitaria sanguinalis, Echinochloa crusgalli, Setaria viridis, Setaria glauca, Leptochloa chinensis, Monochoria vaginalis, Sagittaria trifolia, Scirpus juncoides, Cyperus rotundus, Cyperus iria, Cyperus difformis, Fimbristylis, Portulaca oleracea, Xanthium sibiricum, Pharbitis nil, Conyza Canadensis, etc.) and major crop seeds (wheat, corn, rice, soybean, cotton, oilseed rape, millet, sorghum, potato, sesame, ricinus, etc.) were placed in plastic pots filled with soil, then covered with 0.5-2 cm of soil, allowed to grow in a good greenhouse environment. Two weeks after sowing, the test plants were treated in the 2-3 leaf stage. The tested compounds of the present invention were respectively dissolved in acetone, then added with Tween 80 and 1.5 liter/ha of emulsifiable concentrate of methyl oleate as synergist, diluted with a certain amount of water to obtain a solution of a certain concentration, and sprayed by a spray tower onto the plants. After the application, the plants were cultured for 3 weeks in the greenhouse, and then the experimental results of the weeding were recorded. The doses of the used compounds were 45, 90, 180, 360, 720 g a.i./ha, and the averages were obtained from three replicates.

[2] = test system: Leptochloa chinensis; assay: Weeding effect in post-emergence stage; conditions: 720 g a.i./ha, 3 weeks after application
From the text: as §1, §2, §3

[3] = test system: Abutilon theophrasti; assay: Weeding effect in post-emergence stage; conditions: 720 g a.i./ha, 3 weeks after application
From the text: as §1, §2, §3

[4] = test system: Digitaria sanguinalis; assay: Weeding effect in post-emergence stage; conditions: 720 g a.i./ha, 3 weeks after application
From the text: as §1, §2, §3

[5] = test system: spinach, radish, Chinese cabbage, sesame, rape, cucumber, watermelon, melon, pumpkin, cassava, soybean, kidney bean, cowpea, common bean, hyacinth bean, sponge …; assay: Field test, crop safety; conditions: applied after planting and pre-emergence at 300 g a.i./ha
[6] = test system: weeds; assay: Activity test of the compositions, soil sealing treatment
In short: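 Pre-emergence soil spray at 450 kg/ha, 0.3 MPa, applied 72 h after sowing pre-germinated seeds, 20 seeds per pot, 4 pots, 4 repeats; actives in acetone diluted with 0.10% Tween-80. Greenhouse, 20 to 30° C; surviving weed fresh weight measured 21 days after treatment.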

[7] = test system: Echinochloa crusgalli, Scirpus juncoides, Bidens tripartita L., Sagittaria trifolia; rice (japonica rice); assay: Transplanted rice safety evaluation and weed control effect evaluation in rice field; conditions: weeds 14 days, rice 21 days after treatment; observed with the naked eye
Procedure: Rice field soil was loaded into a 1/1,000,000 ha pot. The seeds of Echinochloa crusgalli, Scirpus juncoides, and Bidens tripartita L. were sowed and gently covered with soil, then placed in a greenhouse with water storage of 0.5-1 cm deep. The tuber of Sagittaria trifolia was planted in the next day or 2 days later. The water storage was kept at a depth of 3-4 cm thereafter. The weeds were treated by homogeneously dripping the WP or SC water diluents of the compounds of the present invention prepared according to the common preparation methods with a pipette to the specified effective amount when the Echinochloa crusgalli, Scirpus juncoides, and Bidens tripartita L. reached their 0.5 leaf stages and the Sagittaria trifolia reached the time point of the primary leaf stage.
In addition, the rice field soil that loaded into the 1/1,000,000 ha pot was leveled to keep water storage at a depth of 3-4 cm. […]
The development condition of Echinochloa crusgalli, Scirpus juncoides, Bidens tripartita L., and Sagittaria trifolia 14 days after the treatment of the compound of the invention and the development condition of rice 21 days after the treatment of the compound of the invention were respectively observed with the naked eye. The weed control effect was evaluated according to the above activity level criteria. […]

For CC1(C)CON(Cc2ccc(Cl)cc2Br)C1=O [Compound 1], the “weeding effect in post-emergence stage, activity level (growth control rate)” value (“weeding effect in post-emergence stage” for short) [1] was 4 (Level 4: growth control rate is greater than or equal to 60% and less than 85%), the “weeding effect in post-emergence stage” value [2] was 5 (Level 5: growth control rate is greater than or equal to 85%) and the “weeding effect in post-emergence stage” value [3] was 5 (Level 5: growth control rate is greater than or equal to 85%). The “weeding effect in post-emergence stage” value [4] was 5 (Level 5: growth control rate is greater than or equal to 85%), the “crop safety in field test” value [5] was “safe” and the “Control effect (%) of A applied alone (A)” value (“Control effect (%)” below) ([6]; Alopecurus japonicus, soil (S), A 8 g a.i./mu) was 39.4%. For the same compound, the “Control effect (%)” value ([6]; Amaranthus retroflexus, soil (S), A 8 g a.i./mu) was 37.3%, the “Control effect (%)” value ([6]; Commelina communis, soil (S), A 8 g a.i./mu) was 44.1% and the “Control effect (%)” value ([6]; Cyperus difformis, soil (S), A 8 g a.i./mu) was 34.5%. The “Control effect (%)” value ([6]; Digitaria sanguinalis, soil (S), A 8 g a.i./mu) was 40.3%, the “Control effect (%)” value ([6]; Echinochloa crusgalli, soil (S), A 8 g a.i./mu) was 50.7% and the “Control effect (%)” value ([6]; Echinochloa crusgalli, soil treatment (S), A at 8 g a.i./mu, fresh weight inhibition 21 days after treatment) was 50.7%. For the same compound, the “Control effect (%)” value ([6]; Galium aparine, soil (S), A 8 g a.i./mu) was 37.2%, the “Control effect (%)” value ([6]; Lolium multiflorum, soil (S), A 8 g a.i./mu) was 53.2% and the “Control effect (%)” value ([6]; Potamogeton distinctus, soil (S), A 8 g a.i./mu) was 35.9%. For the same compound, the “Control effect (%)” value ([6]; Veronica didyma, soil (S), A 8 g a.i./mu) was 48.9% and the “weed control effect and transplanted rice safety in rice field” value [7] was “excellent activity and selectivity”.
